Where two headings read alike, the source gives them in different places.

From patent publication US6958352B2, “Compounds for inhibiting insulin secretion and methods related thereto” (SmithKline Beecham Corporation, priority 2002, dated 2005) come the findings set out here.

The test system of assay [1] is Pancreatic islets of Langerhans. Briefly: Glucose-stimulated insulin secretion (GSIS) by isolated pancreatic islets, insulin ELISA. The class given is cell-based, rat. To be noted: concentration of 1 μM. How it is done:
Pancreatic islets of Langerhans were isolated from adult male Sprague-Dawley rats using a standard collagenase infusion and digestion procedure as described in Example 16. Islets were cultured at 37° C. for 1-2 days in CMRL-1066 medium supplemented with 5.5 mM glucose, 10% fetal bovine serum, 100 U/ml penicillin and 100 μg/ml streptomycin, in a humidified atmosphere containing 5% CO2. Islets were manually picked and washed in Krebs Ringer Bicarbonate buffer (KRB: 134 mM NaCl, 4.7 mM KCl, 1.2 mM KH2PO4, 1.2 mM MgSO4, 1 mM CaCl2, 10 mM NaHCO3, pH 7.4) in preparation for measurement of glucose-stimulated insulin secretion (GSIS). […] Cell-conditioned media samples were then collected by centrifugation and their insulin content was determined using enzyme-linked immunosorbent assay (ELISA) kits (CrystalChem or ALPCO rat insulin ELISA) according to the kit supplier's instructions. Following treatment with a preferred compound, the concentration of insulin detected in the islet-conditioned medium was at least 1.5 times the insulin concentration detected in the medium conditioned by islets that were exposed to 8 mM glucose.
At a concentration of 1 μM, CGP37157 stimulated islet GSIS by 222 (±48) % relative to GSIS detected with 8 mM glucose. […]
(In general: An ELISA detects its analyte on a solid surface through an enzyme-linked reagent.)

In assay [2] the test system is rat pancreatic islet cells. Briefly: Insulin secretion by rat pancreatic islet cells (FIG. 2). The class given is cell-based. As to conditions: basal (5 mM) or supraphysiological (8 mM) glucose.
The subject of assay [3] is INS-1 rat insulinoma cells. Put plainly: Insulin secretion by INS-1 cells, insulin radioimmunoassay. The class given is cell-based. To be noted: 8 mM glucose vs basal; FIG. 1. The protocol: INS-1 rat insulinoma cells were provided by Prof. Claes Wollheim, University Medical Centre, Geneva, Switzerland, and cultured at 37° C. in a humidified 5% CO2 environment in RPMI cell culture media (Gibco BRL, Gaithersburg, Md.) supplemented with 10% fetal bovine serum (Irvine Scientific, Irvine, Calif.), 2 mM L-glutamine, 100 U/ml penicillin, 100 μg/ml streptomycin, 10 mM HEPES, 1 mM sodium pyruvate and 50 μM β-mercaptoethanol (all reagents Sigma, St. Louis, Mo., unless otherwise noted).
INS-1 cells were seeded into 24-well plates containing RPMI media supplemented as described at 0.5×10^6 cells/well and cultured at 37° C., 5% CO2 for 2 days. Cells at or near confluence (0.7×10^6 cells/well) were rinsed with glucose-free KRH buffer (134 mM NaCl, 4.7 mM KCl, 1.2 mM KH2PO4, 1.2 mM MgSO4, 1.0 mM CaCl2, 10 mM HEPES-pH 7.4, 25 mM NaHCO3, 0.5% BSA), then incubated in the same buffer for 1 hr at 37° C. in a humidified 5% CO2/95% air atmosphere. […] Insulin concentrations in the supernatants were measured and normalized to cell number using an insulin-specific radioimmunoassay kit (ICN Biochemicals, Irvine, Calif.) according to the manufacturer's instructions.

Assay [4] deals with T1, mitochondrial calcium/sodium antiporter (Rattus norvegicus, UniProt Q6AXS0).
T1 sequence (Q6AXS0 1-585): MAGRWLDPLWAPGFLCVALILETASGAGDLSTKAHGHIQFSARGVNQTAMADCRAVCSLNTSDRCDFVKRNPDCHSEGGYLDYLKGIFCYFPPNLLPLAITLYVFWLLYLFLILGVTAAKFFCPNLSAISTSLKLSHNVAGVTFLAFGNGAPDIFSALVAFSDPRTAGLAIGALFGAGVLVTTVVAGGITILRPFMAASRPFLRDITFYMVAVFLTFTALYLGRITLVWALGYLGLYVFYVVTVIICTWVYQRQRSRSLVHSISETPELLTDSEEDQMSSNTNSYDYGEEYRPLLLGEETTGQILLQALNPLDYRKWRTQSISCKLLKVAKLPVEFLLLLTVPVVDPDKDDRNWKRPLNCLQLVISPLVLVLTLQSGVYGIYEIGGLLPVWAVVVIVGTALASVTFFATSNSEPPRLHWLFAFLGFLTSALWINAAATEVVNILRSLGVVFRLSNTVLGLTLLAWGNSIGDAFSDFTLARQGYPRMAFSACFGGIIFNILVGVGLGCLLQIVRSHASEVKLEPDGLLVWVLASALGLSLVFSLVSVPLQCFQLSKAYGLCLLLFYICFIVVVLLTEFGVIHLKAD
Put plainly: Inhibition of mitochondrial calcium/sodium antiporter activity (NaCl-induced mitochondrial calcium efflux, calcium green 5N fluorescence). To be noted: digitonin-permeabilized INS-1 cells, 20 mM NaCl. The class given is cell-based. In outline:
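Digitonin-permeabilized INS-1 rat insulinoma cells in sucrose/HEPES/succinate buffer pH 7.4 were loaded with 60 μM CaCl2 plus calcium green 5N for 5 min, then given 1 μM ruthenium red to block uptake. Compounds were tested at 1, 10 or 100 μM in triplicate, and efflux triggered with 20 mM NaCl. Rate of fluorescence change was followed over 2 min.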

The test system of the next assay is C57BLKs-db/db mice. Briefly: Glucose tolerance in mutant db/db mice after oral administration. The class given is in vivo, mouse. To be noted: 100 mg/kg orally one hour before 1 gm glucose/kg i.p.; relative to vehicle control; p<0.05. The text has this:
This Example illustrates the effects of a representative compound on glucose tolerance in an established animal model of type II diabetes mellitus, the db/db mutant mouse. As a brief background, the recessive db mutation has been localized to murine chromosome 4, and homozygous recessive (db/db) individuals are characterized by, inter alia, obesity, hyperphagia, transient increases in plasma insulin concentrations, hyperglycemia, abnormal immune and renal functions, diabetic neuropathy and myocardial disease (see, e.g., Hummel et al., 1966 Science 153:1127; Herberg et al., 1977 Metabolism 26:59; Leiter et al., 1981 Metabolism 30:554; Guenet et al., 1982 Mouse News Letter 67:30; Guenet et al., 1984 Mouse News Letter 70:95; Bray et al., 1971 Physiol. Rev. 51:598; Bailey et al., 1989 J. Endocrinol. 123:19-24; Bray et al., 1979 Physiol. Rev. 59:719; Sima et al., 1979 Lab. Invest. 40:627; Sima et al., 1978 Acta Nettropathol. […]
16o (dissolved in vehicle: 10% (v/v) EtOH, 10% (v/v) polyethylene glycol-400, 30% (v/v) propylene glycol, 50% (v/v) H2O) was administered orally at a dosage of 100 mg/kg body weight to eight-week old mutant C57BLKs-db/db mice (Harlan Bioproducts for Science, Inc., Indianapolis, Ind.). […] Glucose concentrations in each blood sample were determined using OneTouch® glucose test strips (LifeScan, Inc., Milpitas, Calif.) according to the manufacturer's instructions. […]

The mark [5] stands for this setting: Table 3, more preferred compounds, read-out: IC50 ≦ 1 μM.
Where [6] appears, read: Table 2, preferred compounds, read-out: IC50 ≦ 10 μM.

In the case of `O=C1CSC(c2ccccc2Cl)c2cc(Cl)ccc2N1` (centres unmarked) [CGP37157, 7-Chloro-5-(2-chlorophenyl)-1,5-dihydro-4,1-benzothiazepin-2(3H)-one], the “stimulated islet GSIS relative to GSIS detected with 8 mM glucose” value in assay [1] is 222 (±48) %. Also, the “glucose stimulated insulin secretion on rat pancreatic islet cells” value in assay [2] is “enhanced glucose stimulated insulin secretion”. For the same molecule, the “glucose stimulated insulin secretion by INS-1 cells” value in assay [3] is recorded as “enhanced glucose stimulated insulin secretion”.
As for `COc1cc(C(=O)NCCSC(c2cc(Cl)ccc2N)C2CCCCC2)cc(OC)c1OC` (centres unmarked) [Compound 16o], the IC50 in assay [4] (setting [5]) is not above 1000 nM. In the assay on C57BLKs-db/db mice, the “peak blood glucose levels after the glucose bolus” value is “lower peak blood glucose levels” and the “return of blood glucose to baseline” value is listed as “returned to a lower baseline more rapidly”.
As for `Nc1ccc(Cl)cc1C(SCCNS(=O)(=O)c1ccccc1[N+](=O)[O-])c1ccccc1Cl` (centres unmarked) [Compound 18c], the figures for the IC50 in assay [4] (setting [6]) and in assay [4] (setting [5]) were not above 10000 nM and not above 1000 nM, respectively.
As to `Nc1ccc(Cl)cc1C(SCC(F)(F)F)c1ccccc1Cl` (centres unmarked) [Compound 15i], the values for the half-maximal inhibitory concentration (IC50) in assay [4] (setting [6]) and in assay [4] (setting [5]) were not above 10000 nM and not above 1000 nM, respectively.
For `COC(=O)CSCC(c1ccccc1)c1cc(Cl)ccc1N` (centres unmarked) [Compound 20d], in that order: not above 10000 nM and not above 1000 nM.
In the case of `CNCCSCC(c1cc(Cl)ccc1N)c1ccccc1F` (centres unmarked) [Compound 35f], the IC50 in assay [4] (setting [6]) was not above 10000 nM.
For the molecule `COc1cccc(C(=O)NCCSC(c2cc(Cl)ccc2N)C2CCCCC2)c1` (centres unmarked) [Compound 16r], the IC50 in assay [4] (setting [5]) was not above 1000 nM.

The IC50 is the midpoint of a concentration-inhibition curve.
